According to ChEMBL document CHEMBL1177822, “Synthesis and anti-HIV activity of 2'-deoxy-2'-fluoro-4'-C-ethynyl nucleoside analogs” (Bioorg Med Chem Lett, 2010):

Experiments:
[1] = system: Human immunodeficiency virus 1; experiment: Antiviral activity against HIV1 bearing VSV glycoprotein infected in human MT2 cells assessed as inhibition of viral replication after 48 hrs by luciferase reporter gene assay; format: functional, organism-based; settings: Human immunodeficiency virus 1, MT2, 48 h
[2] = Cytotoxicity against human MT2 cells by MTT assay; format: cell-based
[3] = system: Human immunodeficiency virus 1; experiment: Antiviral activity against wild type HIV1 NL4-3 infected in human TZM-bl cells assessed as inhibition of viral replication after 4 days by p24 based ELISA; format: functional, organism-based; settings: Human immunodeficiency virus 1, NL4-3, TZM-bl, 96 h
[4] = system: Human immunodeficiency virus 1; experiment: Antiviral activity against HIV1 NL4-3 with reverse transcriptase K101E mutant infected in human TZM-bl cells assessed as inhibition of viral replication after 4 days by p24 based ELISA; format: functional, organism-based; settings: Human immunodeficiency virus 1, NL4-3, TZM-bl, 96 h
[5] = system: Human immunodeficiency virus 1; experiment: Antiviral activity against reverse transcriptase multidrug-resistant HIV1 infected in human TZM-bl cells assessed as inhibition of viral replication after 4 days by p24 based ELISA; format: functional, organism-based; settings: Human immunodeficiency virus 1, TZM-bl, 96 h
[6] = system: Human immunodeficiency virus 1; experiment: Ratio of compound IC50 to zidovudine IC50 for HIV1 bearing VSV glycoprotein infected in human MT2 cells assessed as inhibition of viral replication after 48 hrs by luciferase reporter gene assay; format: functional
[7] = system: Human immunodeficiency virus 1; experiment: Ratio of compound IC50 to 1-(20-deoxy-40-C-ethynyl-beta-D-arabinofuranosyl)-thymine IC50 for HIV1 bearing VSV glycoprotein infected in human MT2 cells assessed as inhibition of viral replication after 48 hrs by luciferase reporter gene assay; format: functional

Structure (SMILES) | IC50 [1] [nM] | CC50 [2] [nM] | IC50 [3] [nM] | IC50 [4] [nM] | IC50 [5] [nM] | Ratio IC50 [6] | Ratio IC50 [7]
C#C[C@]1(CO)O[C@@H](n2ccc(N)nc2=O)[C@@H](F)[C@@H]1O | 1.34 | > 10000 | 0.46 | 1.52 | 1.45 | 35 | –
Cc1cn([C@H]2C[C@H](N=[N+]=[N-])[C@@H](CO)O2)c(=O)[nH]c1=O [ZIDOVUDINE] | 47 | > 200000 | – | – | – | – | –
C#C[C@]1(CO)O[C@@H](n2ccc(=O)[nH]c2=O)[C@@H](F)[C@@H]1O | 6530 | > 10000 | – | – | – | – | –
C#C[C@]1(CO)O[C@@H](n2cc(C)c(=O)[nH]c2=O)[C@@H](F)[C@@H]1O | 86 | > 10000 | – | – | – | – | 10
